{
  "source": "patent US5260327A",
  "about": "“Methods for inhibiting the proliferation of brain and hepatic metastases by using lonidamine” (priority 1992, dated 1993)",
  "key": {"Meth-A fibrosarcoma [1]": {"test_system": "Meth-A fibrosarcoma", "experiment": "In vivo trimodality therapy versus single and bimodality therapy, tumor growth delay", "parameters": "species or system mice", "conditions": "lonidamine 50 mg/kg/day", "description": "(§1) The effect of trimodality therapy has been examined in HeLa monolayer cell cultures and in the transplanted Meth-A fibrosarcoma. The studies in HeLa cell cultures used a single radiation fraction, and prompt subculture for clonal analysis, conditions which would reduce any heat or drug-induced effect on potential lethal damage. […] In vivo comparative assessment of trimodality therapy versus single and bimodality combination was made in the oxic Meth-A fibrosarcoma. The trimodality regimen consisted of lonidamine (50 mg/kg/day chronically throughout the period of observation), plus radiation therapy (6 Gy×5), and hyperthermia (41.2° C.×65 min pre radiation therapy on days 1 and 4 of therapy); the results are presented in FIG. 14."}, "[2]": {"test_system": "repair of radiation-induced potentially lethal damage (PLD)", "conditions": "cited from earlier work"}, "HeLa cells": {"test_system": "HeLa cells", "experiment": "Trimodality therapy in HeLa monolayer cell cultures", "assay_type": "cell-based, human", "description": "Lonidamine was present only during heating.\nas §1"}, "[3]": {"test_system": "cell culture and murine tumor systems", "conditions": "cited from earlier work"}, "[4]": {"test_system": "Stage 2-4 head and neck cancer", "conditions": "cited from earlier work"}, "brain metastases": {"test_system": "brain metastases", "conditions": "cited from earlier work"}, "[5]": {"test_system": "multicellular HeLa spheroids", "experiment": "Radio-enhancement in multicellular tumor spheroids (growth delay)", "assay_type": "cell-based, human", "description": "Based on these studies, and on supportive studies in mice receiving the drug chronically,Kim et al. proposed that optimal use of lonidamine would be to employ it both during and, in a prolonged exposure, after the course of radiation therapy.\nThe drug's radio-enhancing effects in multicellular tumor spheroids (MTS) was examined assessing growth delay following radiation with and without the drug."}, "[6]": {"conditions": "cited from earlier work"}, "hepatic metastases": {"test_system": "hepatic metastases", "experiment": "Phase I study of lonidamine + radiation therapy in patients with hepatic metastases", "assay_type": "in vivo, human (patients)", "experimental": "Lonidamine has received extensive clinical assessment both as a single agent and in combination with radiation therapy. […] In this dosage peak plasma levels of 5 to 15 μg/ml are attained; this is within the range that enhances the effect of radiation and hyperthermia in model systems (24-26, 30, 37 and 38). Two combined lonidamine+radiation therapy studies have been conducted in patients with extensive hepatic or brain metastases, respectively. […] The study in patients with brain metastases employed a randomized comparative design. Fifty eight patients were enrolled; 31 received lonidamine plus whole brain radiation therapy (WBRT) 300 cGy×10; 27 received WBRT alone."}, "[7]": {"test_system": "oxidative and glycolytic metabolism of mammalian cells", "conditions": "cited from earlier work"}, "spermatogenesis": {"test_system": "spermatogenesis", "conditions": "in vivo; cited from earlier work"}, "Meth-A fibrosarcoma [8]": {"test_system": "Meth-A fibrosarcoma", "experiment": "In vivo therapy with lonidamine, radiation and hyperthermia, tumor control", "parameters": "species or system BALB/cBy mice", "experimental": "Localized radiation and hyperthermia was performed on BALB/cBy mice when tumors were 0.7+/-0.1 cucm and tumor analysis endpoints have been previously described. (26) Tumor control was defined as non-palpable tumor at 60 days. Waterbath temperatures were 41.7° C./65 minutes and […]/65 minutes×2 fractions. […] (Bailey, 26 g thermocouple) below circulated water bath temperatures. Separation between the two hyperthermia treatments was 72 hours.\nLonidamine administration at hour pre-radiation and immediately hyperthermia and was based on serum pharmacokinetic and radiation studies (25). Animals were primed at 100 mg/kg. s.c., 3 days pre-radiation or hyperthermia. At the initiation of radiation or hyperthermia, animals were inoculated 50 mg/kg i.p. 1 hour before treatment and 50 mg/kg s.c. at 48 hours post treatment. Animals were maintained (100 mg/kg) during fractionation and post treatment until recurrence to initial volumes."}, "[9]": {"conditions": "single large daily dosage just prior to radiation"}},
  "note": "“Also recorded” adds a separate entry of the source.",
  "data": [
    {"smiles": "O=C(O)c1nn(Cc2ccc(Cl)cc2Cl)c2ccccc12", "note": "[lonidamine]", "values": [
      {"measurement": "day of tumor regrowth, trimodality therapy", "setting": "Meth-A fibrosarcoma [1]; 6 Gy×5, 41.2° C.×65 min, regrowth not yet evident (radiation+hyperthermia: day 18)", "result": "> 32", "unit": "days"},
      {"measurement": "tumor growth inhibition, radiation therapy+lonidamine, until day", "setting": "Meth-A fibrosarcoma [1]; radiation 6 Gy×5 (radiation alone: day 11)", "result": 13, "unit": "days"},
      {"measurement": "tumor regression, trimodality therapy", "setting": "Meth-A fibrosarcoma [1]; radiation 6 Gy×5, hyperthermia 41.2° C.×65 min days 1 and 4", "result": "tumor regression to the point of non-palpability"},
      {"measurement": "inhibition of repair of radiation-induced potentially lethal damage", "setting": "[2]", "result": "inhibitor of repair of radiation-induced potentially lethal damage; also recorded: established inhibitor of repair of potential lethal damage"},
      {"measurement": "cytotoxic effect on HeLa cells", "setting": "HeLa cells; 37° C.", "result": "no cytotoxic effect on HeLa cells at 37 °C"},
      {"measurement": "trimodality therapy vs radiation alone or bimodality therapy", "setting": "HeLa cells; radiation therapy+lonidamine+mild hyperthermia (41.5° C.), single radiation fraction", "result": "clearly superior to radiation alone, or bimodality therapy"},
      {"measurement": "pH dependence of hyperthermia enhancing effects", "setting": "[3]; acidification of cell culture medium", "result": "greatly increased by acidification of the cell culture medium; also recorded: increased in cells under conditions of reduced extracellular pH"},
      {"measurement": "radiation and hyperthermia enhancement", "setting": "[3]", "result": "radiation and hyperthermia enhancing agent in cell culture and murine tumor systems; also recorded: enhanced cytotoxic effects in cells treated either with radiation or hyperthermia"},
      {"measurement": "disease free survival at 2 years (all patients)", "setting": "[4]; Radiation Therapy+Lonidamine 150 mg t.i.d. (placebo arm: 25%)", "result": 51, "unit": "%"},
      {"measurement": "complete response rate", "setting": "[4]; Radiation Therapy+Lonidamine 150 mg t.i.d. (placebo arm: 58%)", "result": 69, "unit": "%"},
      {"measurement": "remission duration", "setting": "[4]; Radiation Therapy+Lonidamine 150 mg t.i.d. vs placebo arm", "result": "longer in the lonidamine treated arm"},
      {"measurement": "disease free survival rate versus radiation therapy", "setting": "[4]; lonidamine + radiation therapy, placebo-controlled randomized study", "result": "significantly increased the disease free survival rate"},
      {"measurement": "response or survival, lonidamine + WBRT vs WBRT alone", "setting": "brain metastases; WBRT 300 cGy×10", "result": "no significant difference in response or survival"},
      {"measurement": "patients with peak plasma levels ≥15 μg/ml, WBRT study", "setting": "brain metastases; [9]", "result": "15 of 30"},
      {"measurement": "spheroid regrowth on lonidamine removal", "setting": "[5]; lonidamine removed 5 days following the last radiation exposure", "result": "begins to grow again when lonidamine is removed"},
      {"measurement": "effect of fractionation of radiation dose on lonidamine effect", "setting": "[5]; multicellular HeLa spheroids, with radiation", "result": "increased by fractionation of the radiation dose; also recorded: increased with increasing dose fractionation"},
      {"measurement": "peak plasma levels", "setting": "[6]; 150 mg t.i.d.", "result": "5 to 15", "unit": "µg/mL"},
      {"measurement": "tolerability", "setting": "[6]; 150 mg t.i.d.", "result": "well tolerated by most patients"},
      {"measurement": "dose-limiting side effect", "setting": "[6]; clinical", "result": "skeletal muscle discomfort"},
      {"measurement": "objective tumor regression", "setting": "hepatic metastases; lonidamine + radiation therapy 250 to 500 cGy ×5", "result": "five of fifteen"},
      {"measurement": "patients with peak plasma levels ≥15 μg/ml, hepatic study", "setting": "hepatic metastases; [9]", "result": "11 of 17"},
      {"measurement": "patient tolerance of the combination", "setting": "hepatic metastases; single large daily lonidamine dosage + radiation therapy", "result": "acceptable patient tolerance"},
      {"measurement": "effects on oxidative and glycolytic metabolism", "setting": "[7]", "result": "inhibitory effects on both oxidative and glycolytic metabolism of mammalian cells; also recorded: perturb energy metabolism in neoplastic cells"},
      {"measurement": "inhibition of spermatogenesis", "setting": "spermatogenesis", "result": "potent inhibitor of spermatogenesis in mammals"},
      {"measurement": "tumor response, lonidamine+hyperthermia vs hyperthermia alone and radiation+lonidamine vs radiation alone", "setting": "Meth-A fibrosarcoma [8]; 41.2° C. or 41.7° C., fractionated", "result": "No differences were observed"},
      {"measurement": "tumor response, lonidamine in adjuvant capacity", "setting": "Meth-A fibrosarcoma [8]; adjuvant", "result": "Marginal differences in tumor response"},
      {"measurement": "tri-modality therapy vs single or bi-modality treatments", "setting": "Meth-A fibrosarcoma [8]; mouse, in vivo", "result": "consistently greater effect when compared to single or bi-modality treatments"},
      {"measurement": "tumor control, tri-modality therapy (radiation+hyperthermia+lonidamine)", "setting": "Meth-A fibrosarcoma [8]; non-palpable tumor at 60 days, 41.2° C. or 41.7° C.", "result": "50-56%"},
      {"measurement": "tri-modality therapy vs radiation+hyperthermia at 41.2° C.", "setting": "Meth-A fibrosarcoma [8]; tumor control", "result": "more effective than the tumor control for radiation+hyperthermia at 41.2 °C"}
    ]}
  ]
}
